Test results: ChEMBL document CHEMBL1909046, “DrugMatrix in vitro pharmacology data”

What was measured:
Adenosine receptor A1 = biological target: T1, Adenosine receptor A1 (Homo sapiens, UniProt P30542); type: cell membranes, CHO, Membrane; conditions: cho;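 further: radioligand binding assay at the adenosine A1 receptor, with DPCPX serving as the labelled ligand; in other assays of this panel Not Active means under 50% inhibition at 10 µM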
T1 sequence (P30542 whole entry): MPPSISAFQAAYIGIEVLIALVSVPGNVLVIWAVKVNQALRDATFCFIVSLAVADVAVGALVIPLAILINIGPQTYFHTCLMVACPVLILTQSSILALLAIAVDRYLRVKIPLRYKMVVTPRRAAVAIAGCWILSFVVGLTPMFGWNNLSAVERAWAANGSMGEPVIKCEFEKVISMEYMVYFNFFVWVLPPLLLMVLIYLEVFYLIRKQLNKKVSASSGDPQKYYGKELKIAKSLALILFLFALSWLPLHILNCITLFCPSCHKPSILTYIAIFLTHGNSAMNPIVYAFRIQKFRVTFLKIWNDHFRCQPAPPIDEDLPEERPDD

[1] = DRUGMATRIX: Sigma2 radioligand binding (ligand: [3H] Ifenprodil); type: cell membranes, Rattus norvegicus, Wistar, Brain, Membrane; conditions: Not Active = under 50% inhibition at 10 µM
Acetylcholinesterase = Acetylcholinesterase (Homo sapiens, UniProt P22303); assay: DRUGMATRIX: Acetylcholinesterase enzyme inhibition (substrate: acetylthiocholine); type: cell-based, HEK293; conditions: Not Active = under 50% inhibition at 10 µM
[2] = DRUGMATRIX: Atrial Natriuretic Factor (ANF) radioligand binding (ligand: [125I] ANF (rat)); type: cell membranes, Cavia porcellus, Dunkin-Hartley, Adrenal gland, Membrane; conditions: Not Active = under 50% inhibition at 10 µM
[3] = DRUGMATRIX: Glutamate, NMDA, Agonism radioligand binding (ligand: [3H] CGP-39653); type: cell membranes, Rattus norvegicus, Wistar, Cerebral cortex, Membrane; conditions: Not Active = under 50% inhibition at 10 µM
Adenosine receptor A2a = Adenosine receptor A2a (Homo sapiens, UniProt P29274); assay: DRUGMATRIX: Adenosine A2A radioligand binding (ligand: […]); type: cell membranes, HEK293, Membrane; conditions: Not Active = under 50% inhibition at 10 µM
Adenosine receptor A2a, sequence (P29274 whole entry): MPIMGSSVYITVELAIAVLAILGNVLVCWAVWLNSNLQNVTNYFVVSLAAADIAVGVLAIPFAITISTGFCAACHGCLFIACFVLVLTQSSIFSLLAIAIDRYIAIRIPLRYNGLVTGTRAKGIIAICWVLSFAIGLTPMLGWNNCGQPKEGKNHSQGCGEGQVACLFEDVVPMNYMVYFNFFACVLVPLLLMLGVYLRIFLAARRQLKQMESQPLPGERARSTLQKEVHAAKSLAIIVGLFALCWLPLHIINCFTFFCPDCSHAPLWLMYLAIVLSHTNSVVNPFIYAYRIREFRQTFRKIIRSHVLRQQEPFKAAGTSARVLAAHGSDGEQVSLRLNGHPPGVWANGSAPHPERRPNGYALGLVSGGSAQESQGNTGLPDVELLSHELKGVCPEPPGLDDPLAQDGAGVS

Acetylcholinesterase, sequence (P22303 whole entry): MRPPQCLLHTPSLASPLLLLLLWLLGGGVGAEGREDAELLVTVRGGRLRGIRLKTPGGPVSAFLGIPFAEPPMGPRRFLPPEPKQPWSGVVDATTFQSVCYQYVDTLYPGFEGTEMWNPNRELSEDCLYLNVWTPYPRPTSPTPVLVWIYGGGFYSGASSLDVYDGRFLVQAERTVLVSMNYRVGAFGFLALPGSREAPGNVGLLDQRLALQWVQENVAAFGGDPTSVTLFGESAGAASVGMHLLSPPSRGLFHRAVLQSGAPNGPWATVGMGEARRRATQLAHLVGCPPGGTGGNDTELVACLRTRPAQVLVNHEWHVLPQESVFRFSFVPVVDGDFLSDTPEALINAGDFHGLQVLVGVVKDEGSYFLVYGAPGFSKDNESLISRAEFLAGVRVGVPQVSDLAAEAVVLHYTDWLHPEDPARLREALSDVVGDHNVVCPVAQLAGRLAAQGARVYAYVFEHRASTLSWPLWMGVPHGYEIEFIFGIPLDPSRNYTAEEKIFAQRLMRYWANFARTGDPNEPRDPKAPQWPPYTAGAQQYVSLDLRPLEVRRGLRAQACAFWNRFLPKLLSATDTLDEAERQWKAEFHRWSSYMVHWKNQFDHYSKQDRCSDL

Row | Molecule | IC50 (Adenosine receptor A1) | IC50 [1] | Ki [1] | IC50 (Acetylcholinesterase; hek293) | IC50 [2] | Ki [2] | IC50 [3] | Ki [3] | IC50 (Adenosine receptor A2a; hek293) | Ki (Adenosine receptor A1) | Ki (Acetylcholinesterase; hek293) | Ki (Adenosine receptor A2a; hek293) | IC50 (Adenosine receptor A2a; read-out: IC50) [µM] | Ki (Adenosine receptor A2a; read-out: Ki) [µM] | IC50 (Acetylcholinesterase; read-out: IC50) [µM] | IC50 ([1]; read-out: IC50) [µM] | Ki ([1]; read-out: Ki) [µM]
1 | CCOC(=O)[C@H](CCc1ccccc1)N[C@@H](C)C(=O)N1CCC[C@H]1C(=O)O | Not Active | Not Active | Not Active | Not Active | Not Active | Not Active | Not Active | Not Active | Not Active | – | – | – | – | – | – | – | –
2 | POLYVINYL ALCOHOL | Not Active | Not Active | Not Active | Not Active | Not Active | Not Active | Not Active | Not Active | Not Active | Not Active | Not Active | Not Active | – | – | – | – | –
3 | CCC[C@@H]1C[C@@H](C(=O)N[C@@H]([C@H]2O[C@H](SC)[C@H](O)[C@@H](O)[C@H]2O)[C@H](C)Cl)N(C)C1 [CLINDAMYCIN] | Not Active | Not Active | Not Active | Not Active | Not Active | Not Active | Not Active | Not Active | Not Active | – | – | – | – | – | – | – | –
4 | CN(Cc1cnc2nc(N)nc(N)c2n1)c1ccc(C(=O)N[C@@H](CCC(=O)O)C(=O)O)cc1 [METHOTREXATE] | Not Active | Not Active | Not Active | Not Active | Not Active | Not Active | Not Active | Not Active | Not Active | – | – | – | – | – | – | – | –
5 | CO[C@@]1(NC(=O)CSCC#N)C(=O)N2C(C(=O)O)=C(CSc3nnnn3C)CS[C@@H]21 [CEFMETAZOLE] | Not Active | Not Active | Not Active | Not Active | Not Active | Not Active | Not Active | Not Active | Not Active | – | – | – | – | – | – | – | –
6 | C[C@@H]1CC[C@H]2[C@@H](C)C(=O)O[C@@H]3O[C@@]4(C)CC[C@@H]1[C@]32OO4 [ARTEMISININ] | Not Active | Not Active | Not Active | Not Active | Not Active | Not Active | Not Active | Not Active | Not Active | – | – | – | – | – | – | – | –
7 | CC(C(=O)O)c1ccc(CC2CCCC2=O)cc1 (stereo not given) [LOXOPROFEN] | Not Active | Not Active | Not Active | Not Active | Not Active | Not Active | Not Active | Not Active | Not Active | – | – | – | – | – | – | – | –
8 | CCCCCC[C@H]1C(=O)O[C@H](C)[C@H](NC(=O)c2cccc(NC=O)c2O)C(=O)O[C@@H](C)[C@@H]1OC(=O)CC(C)C [ANTIMYCIN A] | Not Active | Not Active | Not Active | Not Active | Not Active | Not Active | Not Active | Not Active | Not Active | – | – | – | – | – | – | – | –
9 | C#C[C@]1(O)CC[C@H]2[C@@H]3CCc4cc(O)ccc4[C@H]3CC[C@@]21C [ETHINYL ESTRADIOL] | Not Active | Not Active | Not Active | Not Active | Not Active | Not Active | Not Active | Not Active | – | – | – | – | 20.9 | 11.8 | – | – | –
10 | CC[C@H]1OC(=O)[C@H](C)[C@@H](O[C@H]2C[C@@](C)(OC)[C@@H](O)[C@H](C)O2)[C@H](C)[C@@H](O[C@@H]2O[C@H](C)C[C@H](N(C)C)[C@H]2O)[C@](C)(O)C[C@@H](C)CN(C)[C@H](C)[C@@H](O)[C@]1(C)O [AZITHROMYCIN] | Not Active | Not Active | Not Active | Not Active | Not Active | Not Active | Not Active | Not Active | Not Active | – | – | – | – | – | – | – | –
11 | COc1ccc2cc(CCC(C)=O)ccc2c1 [NABUMETONE] | Not Active | Not Active | Not Active | Not Active | Not Active | Not Active | Not Active | Not Active | Not Active | – | – | – | – | – | – | – | –
12 | CCCCC1C(=O)N(c2ccccc2)N(c2ccccc2)C1=O [PHENYLBUTAZONE] | Not Active | Not Active | Not Active | Not Active | Not Active | Not Active | Not Active | Not Active | Not Active | – | – | – | – | – | – | – | –
13 | C=C1/C(=C\C=C2/CCC[C@]3(C)[C@@H]([C@H](C)CCCC(C)C)CC[C@@H]23)C[C@@H](O)C[C@@H]1O [ALFACALCIDOL] | Not Active | Not Active | Not Active | Not Active | Not Active | Not Active | Not Active | Not Active | Not Active | – | – | – | – | – | – | – | –
14 | NC(=O)N1c2ccccc2C=Cc2ccccc21 [CARBAMAZEPINE] | Not Active | Not Active | Not Active | Not Active | Not Active | Not Active | Not Active | Not Active | Not Active | – | – | – | – | – | – | – | –
15 | COc1ccc(Cc2nccc3cc(OC)c(OC)cc23)cc1OC [PAPAVERINE] | Not Active | Not Active | Not Active | Not Active | Not Active | Not Active | Not Active | Not Active | Not Active | – | – | – | – | – | – | – | –
16 | CNC(=C[N+](=O)[O-])NCCSCc1csc(CN(C)C)n1 [NIZATIDINE] | Not Active | Not Active | Not Active | – | Not Active | Not Active | Not Active | Not Active | Not Active | – | – | – | – | – | 5.61 | – | –
17 | COc1ccccc1OCC(O)CO (stereo not given) [GUAIFENESIN] | Not Active | Not Active | Not Active | Not Active | Not Active | Not Active | Not Active | Not Active | Not Active | – | – | – | – | – | – | – | –
18 | O=C(c1ccccc1Cl)N1CCC(Cc2ccccc2)CC1 | Not Active | Not Active | Not Active | Not Active | Not Active | Not Active | Not Active | Not Active | Not Active | – | – | – | – | – | – | – | –
19 | Cc1cccc(Nc2cc(Cl)nc(SCC(=O)O)n2)c1C [PIRINIXIC ACID] | Not Active | Not Active | Not Active | Not Active | Not Active | Not Active | Not Active | Not Active | Not Active | – | – | – | – | – | – | – | –
20 | CC(CCc1ccc(O)cc1)NCCc1ccc(O)c(O)c1 (stereo not given) [DOBUTAMINE] | Not Active | – | – | Not Active | Not Active | Not Active | Not Active | Not Active | Not Active | – | – | – | – | – | – | 2.6 | 1.6
21 | CC(C)(Sc1cc(C(C)(C)C)c(O)c(C(C)(C)C)c1)Sc1cc(C(C)(C)C)c(O)c(C(C)(C)C)c1 [PROBUCOL] | Not Active | Not Active | Not Active | Not Active | Not Active | Not Active | Not Active | Not Active | Not Active | – | – | – | – | – | – | – | –
22 | C/C=C\c1ccc(O)c(OC)c1 [ISOEUGENOL] | Not Active | Not Active | Not Active | Not Active | Not Active | Not Active | Not Active | Not Active | Not Active | – | – | – | – | – | – | – | –
23 | [N-]=[N+]=CC(=O)OC[C@H](N)C(=O)O [AZASERINE] | Not Active | Not Active | Not Active | Not Active | Not Active | Not Active | Not Active | Not Active | Not Active | – | – | – | – | – | – | – | –
24 | CCOC(=O)C1=C(C)NC(C)=C(C(=O)OC)C1c1cccc(Cl)c1Cl (stereo not given) [FELODIPINE] | Not Active | Not Active | Not Active | Not Active | Not Active | Not Active | Not Active | Not Active | Not Active | – | – | – | – | – | – | – | –
25 | C[C@H](C(=O)O)c1cccc(C(=O)c2ccccc2)c1 [DEXKETOPROFEN] | Not Active | Not Active | Not Active | Not Active | Not Active | Not Active | Not Active | Not Active | Not Active | – | – | – | – | – | – | – | –
26 | Cc1cn[nH]c1 [FOMEPIZOLE] | Not Active | Not Active | Not Active | Not Active | Not Active | Not Active | Not Active | Not Active | Not Active | – | – | – | – | – | – | – | –
27 | O=c1cc(-c2ccccc2)oc2ccc3ccccc3c12 [BETA-NAPHTHOFLAVONE] | Not Active | Not Active | Not Active | Not Active | Not Active | Not Active | Not Active | Not Active | Not Active | – | – | – | – | – | – | – | –
28 | Cc1c(N(C)CS(=O)(=O)[O-])c(=O)n(-c2ccccc2)n1C.[Na+] [DIPYRONE SODIUM] | Not Active | Not Active | Not Active | Not Active | Not Active | Not Active | Not Active | Not Active | Not Active | – | – | – | – | – | – | – | –
29 | CN1C(=O)CN=C(c2ccccc2)c2cc(Cl)ccc21 [DIAZEPAM] | Not Active | Not Active | Not Active | Not Active | Not Active | Not Active | Not Active | Not Active | Not Active | – | – | – | – | – | – | – | –
